Drawing on patent publication US8288421B2, “Phenylaminopyridines” (Basilea Pharmaceutica AG, priority 2004, dated 2012), this text covers EC50 and IC50 for six compounds.

One experiment concerns DOHH2. As to the kind of experiment: Mitochondrial membrane potential (JC-1). It is filed as cell-based. Particulars: DOHH2, 48 h read-out. How it is done:
(§1) This assay is performed in 96 well tissue culture plates. Appropriate number of cells (adherent cells: 3-5*10^3, suspension cells: 8-10*10^3) are being seeded out in 80 μl complete medium. Adherent cells are incubated for 24 h for proper spreading out before addition of test compounds while suspension cells are immediately treated with test compounds after seeding out. The test compounds are added in 20 μal complete medium containing max 5% DMSO. […] The assay plates are then further incubated for 30 minutes and subsequently analyzed with a standard inverted fluorescence microscope by using the FITC and TRITC filters.
(§2) The scores A, B, C and D are explained at the end of the Table.

The subject of experiment [1] is Jily. As to the kind of experiment: Hoechst 33342 nuclear staining. The conditions noted are these: 48 h read-out. The experiment is classed as cell-based. On the procedure: as §1, with “μl” for “μal”, “DMSO. The final compound concentrations in the assays are in the range of 0.001 μM-10 μM.” for “DMSO.”, “microscope.” for “microscope by using the FITC and TRITC filters.”
(§3) The readout allows the determination of the fraction of apoptotic nuclei as well as other morphological criteria specific for apoptosis as a function of the treatment. The scores A, B, C and D are explained at the end of the Table.

In experiment [2] the test system is MRC5. Briefly: Hoechst 33342 nuclear staining. It is filed as cell-based. The conditions noted are these: MRC5, 48 h read-out. On the procedure: as §1, with “μl” for “μal”, “DMSO. The final compound concentrations in the assays are in the range of 0.001 μM-10 μM.” for “DMSO.”, “microscope.” for “microscope by using the FITC and TRITC filters.”
as §3

Experiment [3] concerns Jily. Briefly: MTS proliferation assay. The experiment is classed as cell-based. Particulars: 72 h read-out. On the procedure: (§4) The assay is performed in 96 well tissue culture plates. The cells (range: 1.5*10^3-10^4) are seeded out in 80 μl complete medium 24 h prior to compound treatment. The test compounds are added in 20 μl complete medium containing max 5% DMSO. The final compound concentrations in the assays are in the range of 0.001 μM-10 μM. The assay plates are incubated for 72 h at culture conditions. The MTS reagent is prepared according to the manufacturer's protocol (Promega G1111). 20 μl MTS reagent are added to each well, the assay plates are quickly spun and incubated for another 3 h at culture conditions. Subsequently, the plates are shortly shaked and absorption measured with a microplate-reader at 492 nm. The scores A, B, C and D are explained at the end of the Table.

In experiment [4] the test system is MRC5. Briefly: MTS proliferation assay. It is filed as cell-based. The conditions noted are these: MRC5, 72 h read-out. How it is done: as §4
Background: Formazan colour is commonly taken as a measure of viable cells.

Experiment [5] deals with PBL. Briefly: Mitochondrial membrane potential (JC-1). The conditions noted are these: 48 h read-out. The experiment is classed as cell-based, human. On the procedure:
as §1, §2

The test system of another experiment is MCF7. As to the kind of experiment: Mitochondrial membrane potential (JC-1). The experiment is classed as cell-based, human. Particulars: MCF7, 48 h read-out. How it is done: as §1, §2
Experiment [6] concerns HeLa. As to the kind of experiment: Mitochondrial membrane potential (JC-1). The experiment is classed as cell-based, human. Particulars: 48 h read-out. On the procedure: as §1, §2
The subject of experiment [7] is Jurkat. Briefly: Mitochondrial membrane potential (JC-1). The conditions noted are these: 48 h read-out. It is filed as cell-based, human. How it is done:
as §1, §2

The test system of experiment [8] is PBL. Briefly: Hoechst 33342 nuclear staining. It is filed as cell-based, human. The conditions noted are these: 48 h read-out. On the procedure:
as §1, with “μl” for “μal”, “DMSO. The final compound concentrations in the assays are in the range of 0.001 μM-10 μM.” for “DMSO.”, “microscope.” for “microscope by using the FITC and TRITC filters.”
as §3

Experiment [9] has as its system HeLa. As to the kind of experiment: Hoechst 33342 nuclear staining. It is filed as cell-based, human. The conditions noted are these: 48 h read-out. How it is done: as §1, with “μl” for “μal”, “DMSO. The final compound concentrations in the assays are in the range of 0.001 μM-10 μM.” for “DMSO.”, “microscope.” for “microscope by using the FITC and TRITC filters.”
as §3

Experiment [10] relates to Jurkat. As to the kind of experiment: Hoechst 33342 nuclear staining. It is filed as cell-based, human. The conditions noted are these: 48 h read-out. How it is done:
as §1, with “μl” for “μal”, “DMSO. The final compound concentrations in the assays are in the range of 0.001 μM-10 μM.” for “DMSO.”, “microscope.” for “microscope by using the FITC and TRITC filters.”
as §3

For another experiment, the system named is HT1080. As to the kind of experiment: MTS proliferation assay. It is filed as cell-based, human. Particulars: HT1080, 72 h read-out. How it is done:
as §4

The subject of experiment [11] is HeLa. As to the kind of experiment: MTS proliferation assay. The experiment is classed as cell-based, human. Particulars: 72 h read-out. How it is done: as §4
Experiment [12] concerns Jurkat. Briefly: MTS proliferation assay. Particulars: 72 h read-out. It is filed as cell-based, human. On the procedure: as §4

Some results are limits rather than exact numbers.

Take `COc1ccc(Nc2cncc(-c3cccc(NC(=O)C(C)C)c3)c2)cc1` [Example 26]: the EC50 (usually the concentration needed to bring the measured effect to its halfway point) with DOHH2 was 100 to 1000 nM; in the experiment on Jily [1] it was 100 to 1000 nM; in the experiment with MRC5 [2], more than 1000 nM; in the experiment on PBL [5], more than 1000 nM; in the experiment with MCF7, more than 1000 nM; in the experiment with HeLa [6] it was more than 1000 nM. The EC50 was 100 to 1000 nM in the experiment on Jurkat [7], more than 1000 nM in the experiment on PBL [8], 100 to 1000 nM with HeLa [9] and 10 to 100 nM with Jurkat [10]. Moreover, the 50% inhibitory concentration (IC50) (as a rule, the midpoint of a concentration-inhibition curve) is 10 to 100 nM in the experiment with Jily [3]; 100 to 1000 nM in the experiment with MRC5 [4]; 100 to 1000 nM in the experiment with HT1080; 100 to 1000 nM with HeLa [11]; 10 to 100 nM in the experiment on Jurkat [12].

As to `CCOc1ccccc1C(=O)Nc1cccc(-c2cncc(Nc3ccc(OC)cc3)c2)c1` [Example 10], the EC50 was 100 to 1000 nM in the experiment with DOHH2; 100 to 1000 nM in the experiment with Jily [1]; more than 1000 nM in the experiment on MRC5 [2]; more than 1000 nM in the experiment on PBL [5]; 100 to 1000 nM with MCF7; 100 to 1000 nM with HeLa [6]. Also, the half-maximal effective concentration (EC50) was 10 to 100 nM in the experiment with Jurkat [7], more than 1000 nM with PBL [8], 10 to 100 nM in the experiment with HeLa [9] and 10 to 100 nM in the experiment on Jurkat [10]. Moreover, the half-maximal inhibitory concentration (IC50) fell in the range of 10 to 100 nM in the experiment on Jily [3]; 100 to 1000 nM in the experiment on MRC5 [4]; 10 to 100 nM in the experiment with HT1080; 100 to 1000 nM with HeLa [11]; 10 to 100 nM in the experiment on Jurkat [12].

Consider `COc1ccc(Nc2cncc(-c3cccc(NC(=O)c4ccco4)c3)c2)cc1` [Example 14], for which the concentration for a half-maximal effect (EC50) is 10 to 100 nM in the experiment with DOHH2; 10 to 100 nM in the experiment on Jily [1]; 100 to 1000 nM with MRC5 [2]; more than 1000 nM in the experiment with PBL [5]; more than 1000 nM in the experiment on MCF7; 100 to 1000 nM with HeLa [6]. In addition, the EC50 in the experiment with Jurkat [7] was 10 to 100 nM; in the experiment with PBL [8] it was more than 1000 nM; in the experiment with HeLa [9], 100 to 1000 nM; in the experiment on Jurkat [10], 10 to 100 nM. In addition, the IC50 in the experiment on Jily [3] fell in the range of 10 to 100 nM; in the experiment with MRC5 [4], 100 to 1000 nM; in the experiment with HT1080, 100 to 1000 nM; in the experiment with HeLa [11], 100 to 1000 nM; with Jurkat [12] it was 10 to 100 nM.

As to `COc1ccc(Nc2cncc(-c3cccc(NC(=O)c4cccs4)c3)c2)cc1` [Example 22], the half-maximal effective concentration (EC50) in the experiment on DOHH2 is 10 to 100 nM; in the experiment with Jily [1], 10 to 100 nM; in the experiment on MRC5 [2], 100 to 1000 nM; with PBL [5] it was more than 1000 nM; in the experiment on MCF7, 100 to 1000 nM; in the experiment with HeLa [6] it was 10 to 100 nM. For the same compound, the EC50 is 10 to 100 nM in the experiment on Jurkat [7], more than 1000 nM in the experiment with PBL [8], 10 to 100 nM in the experiment on HeLa [9] and 10 to 100 nM in the experiment with Jurkat [10]. The 50% inhibitory concentration (IC50) in the experiment on Jily [3] was 10 to 100 nM; with MRC5 [4], 100 to 1000 nM; in the experiment with HT1080, 10 to 100 nM; in the experiment with HeLa [11], 10 to 100 nM; in the experiment on Jurkat [12] it was 10 to 100 nM.

Regarding `COCC(=O)Nc1cccc(-c2cncc(Nc3ccc(OC)cc3)c2)c1` [Example 41], the 50% effective concentration (EC50) in the experiment with DOHH2 was 100 to 1000 nM; with Jily [1], 100 to 1000 nM; with MRC5 [2] it was more than 1000 nM; in the experiment on PBL [5] it was 100 to 1000 nM; in the experiment on MCF7 it was 100 to 1000 nM; in the experiment on HeLa [6] it was 100 to 1000 nM. Also, the EC50 in the experiment with Jurkat [7], in the experiment on PBL [8], in the experiment on HeLa [9] and in the experiment with Jurkat [10] was 100 to 1000 nM in each case.

With `COc1ccc(Nc2cncc(-c3cccc(NC(=O)c4ccc(OC)cc4)c3)c2)cc1` [Example 9], the concentration giving a half-maximal response (EC50) in the experiment on DOHH2 was 10 to 100 nM; in the experiment on PBL [5], more than 1000 nM; in the experiment with MCF7 it was 100 to 1000 nM; with HeLa [6], 100 to 1000 nM; in the experiment on Jurkat [7], 10 to 100 nM. The half-maximal inhibitory concentration (IC50) with Jily [3] was 100 to 1000 nM; in the experiment on MRC5 [4], more than 1000 nM; in the experiment on HT1080 it was 100 to 1000 nM; in the experiment on HeLa [11] it was 100 to 1000 nM; with Jurkat [12], 100 to 1000 nM.
